Data from the supplement of paper PMC5579334.
± gives the standard deviation of the averaged measurements.

Key:
ST8814 [1] = test: % inhibition of CellTiter-Glo viability at highest tested concentration (72 h), relative to DMSO and benzethonium chloride controls; higher = more inhibition
Outline: (§1)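 Viability was scored by CellTiter-Glo ATP luminescence, scaled from vehicle to positive-control wells, with duplicates averaged where present. The cells, MPNST lines and primary human Schwann cells at 750–1000 per well, sat 72 h at 37 °C, 5% CO2, in 384-well plates preprinted with each compound at five concentrations in 10-fold steps. Four-parameter logistic fits were run on the data. These fits give drug sensitivity score and relative IC50 censored at the top concentration, and percent inhibition is reported at the top concentration.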

STS26T [2] = test: as above
Outline: as §1

YST-1 [3] = test: as above
Outline: as §1

HS-PSS [4] = test: as above
Outline: as §1

S1507-2 [5] = test: as above
Outline: as §1

[6] = test system: HSC1 (primary human Schwann cells); test: as above
Outline: as §1

HS-Sch-2 [7] = test: as above
Outline: as §1

[8] = test system: HSC2 (primary human Schwann cells); test: as above
Outline: as §1

S462 [9] = test: as above
Outline: as §1

ST8814 [10] = test: drug sensitivity score (DSS, CellTiter-Glo viability, 72 h) (DSS (dimensionless)); higher = more sensitive; extreme values may be limits of the assay
Outline: as §1

STS26T [11] = test: as above
Outline: as §1

YST-1 [12] = test: as above
Outline: as §1

HS-PSS [13] = test: as above
Outline: as §1

S1507-2 [14] = test: as above
Outline: as §1

[15] = test system: HSC1 (primary human Schwann cells); test: as above
Outline: as §1

HS-Sch-2 [16] = test: as above
Outline: as §1

[17] = test system: HSC2 (primary human Schwann cells); test: as above
Outline: as §1

S462 [18] = test: as above
Outline: as §1

ST8814 [19] = test: drug sensitivity score (DSS, CellTox-Green cytotoxicity, 72 h) (DSS (dimensionless)); higher = more cytotoxic; extreme values may be limits of the assay
Outline: (§2)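 MPNST cell lines and primary human Schwann cells were incubated 72 h at 37 °C in 384-well plates holding five 10-fold compound dilutions. CellTox-Green was added before seeding at a final 1:1000 dilution and reported fluorescence from DNA released by disrupted cells. Signals were scaled to vehicle and positive-control wells, and cultures failing plate quality control were dropped. Drug sensitivity score and relative IC50 come from four-parameter logistic fits, with IC50 censored at the top concentration.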

STS26T [20] = test: as above
Outline: as §2

HS-PSS [21] = test: as above
Outline: as §2

S1507-2 [22] = test: as above
Outline: as §2

[23] = test system: HSC1 (primary human Schwann cells); test: as above
Outline: as §2

[24] = test system: HSC2 (primary human Schwann cells); test: as above
Outline: as §2

SMILES	% inhibition (ST8814 [1]) [%]	% inhibition (STS26T [2]) [%]	% inhibition (YST-1 [3]) [%]	% inhibition (HS-PSS [4]) [%]	% inhibition (S1507-2 [5]) [%]	% inhibition [6] [%]	% inhibition (HS-Sch-2 [7]) [%]	% inhibition [8] [%]	% inhibition (S462 [9]) [%]	drug sensitivity score (ST8814 [10])	drug sensitivity score (STS26T [11])	drug sensitivity score (YST-1 [12])	drug sensitivity score (HS-PSS [13])	drug sensitivity score (S1507-2 [14])	drug sensitivity score [15]	drug sensitivity score (HS-Sch-2 [16])	drug sensitivity score [17]	drug sensitivity score (S462 [18])	drug sensitivity score (ST8814 [19])	drug sensitivity score (STS26T [20])	drug sensitivity score (HS-PSS [21])	drug sensitivity score (S1507-2 [22])	drug sensitivity score [23]	drug sensitivity score [24]
NC(=O)NO [Hydroxyurea] (max concentration tested 100000 nM)	3.1	3.66	8.97	9.89	5.18 ± 7.5	16.3	20.8	9.58	-3.38 ± 4.4	0	0	0	0	0	0.337	0.56	0	0	0	0	0	0	0	0
CN1CCN(c2nc(C3=C(c4c[nH]c5ccccc45)C(=O)NC3=O)c3ccccc3n2)CC1 [Sotrastaurin] (max concentration tested 10000 nM)	7.08	-3.71	17.7	3.47	6.26 ± 6.6	-32.7	5.75	-36.1	11.8 ± 2	0.337	0	0.45	0	0.00765 ± 0.011	0	0	0	0.0588 ± 0.083	0	0	0	0	0	0
Cn1c(=O)n(-c2ccc(C(C)(C)C#N)cc2)c2c3cc(-c4cnc5ccccc5c4)ccc3ncc21 [Dactolisib] (max concentration tested 1000 nM)	64	67.7	63.8	69.8	66 ± 2.8	75	61.8	78.3	61 ± 0.72	14.3	17.2	14.7	14.4	15.8 ± 2.9	19.4	13.9	19.4	13.2 ± 0.72	0	0	0.12	0	0	0
COc1cc([C@@H]2c3cc4c(cc3[C@@H](O[C@@H]3O[C@@H]5CO[C@@H](c6cccs6)O[C@H]5[C@H](O)[C@H]3O)[C@H]3COC(=O)[C@H]23)OCO4)cc(OC)c1O [Teniposide] (max concentration tested 10000 nM)	87.2	93.7	88.2	68.2	92.44 ± 0.6	92.8	94.8	100	107.1 ± 0.24	17.7	17.5	22.9	6.82	15.6 ± 3.6	22.2	14	22.8	23.7 ± 0.38	14.7	11	1.46	8.49 ± 4.7	11	9.8
O=C(O)CNC(=O)c1c(O)c2ccccc2n(Cc2ccccc2)c1=O [IOX-2] (max concentration tested 50000 nM)	30.5	16.4	12	65	26.3 ± 12	9.77	89	20.2	12.2 ± 1.9	2.35	0.326	0.01	5.08	1.81 ± 1.5	0	6.06	1.03	0.3 ± 0.38	0.888	0	0	0	0	0
COc1cc(F)c(F)c(Nc2ccc(I)cc2F)c1NS(=O)(=O)C1(C[C@H](O)CO)CC1 [Refametinib] (max concentration tested 10000 nM)	99.1	53	17.5	63.2	86.7 ± 4.6	69.2	75.5	69	94.83 ± 0.55	14.8	8.43	0.24	5.39	13.8 ± 1.3	8.11	6.81	10.5	14.9 ± 1.8	8.62	1.17	0.98	11.1 ± 3.6	0	0.276
CC[C@H](CO)Nc1nc(NCc2ccccc2)c2ncn(C(C)C)c2n1 [Seliciclib] (max concentration tested 10000 nM)	5.24	23.2	5.74	30.8	-2.22 ± 4.7	22.5	22.6	34.7	32.2 ± 3.6	0	0.759	0	2.39	0	0.597	0.52	1.23	1.26 ± 0.44	0	0	0.1	0	0	0
COc1ccc(S(=O)(=O)Nc2cccnc2Nc2ccc(O)cc2)cc1 [ABT-751] (max concentration tested 10000 nM)	86	94.9	83.1	69	79.7 ± 4.9	76.6	87.8	86	96.52 ± 0.26	15.1	16.3	10.8	3.98	14 ± 0.54	12.3	14.3	13.5	16.8 ± 0.83	13.5	19	0	11.9 ± 0.12	7.1	12.9
Cn1cncc1[C@@](N)(c1ccc(Cl)cc1)c1ccc2c(c1)c(-c1cccc(Cl)c1)cc(=O)n2C [Tipifarnib] (max concentration tested 10000 nM)	59.9	87.3	73.1	46.5	64.095 ± 0.013	69.7	78	66.7	75.3 ± 2	8.98	14	13.9	5.39	14.3 ± 0.82	6.55	7.08	8.8	10.58 ± 0.032	0	9.1	0	0	0.209	0
CCc1cnn2c(NCc3ccc[n+]([O-])c3)cc(N3CCCC[C@H]3CCO)nc12 [Dinaciclib] (max concentration tested 1000 nM)	80.5	92.7	99.5	84.2	76.6 ± 1.6	83.5	101	86.4	90.8 ± 2.7	15	21.6	25.2	21	15 ± 1.9	16.9	25.1	19.9	24.4 ± 0.71	5.45	14.8	5.02	2.29 ± 3.1	5.96	7.57
Nc1ncn([C@@H]2O[C@H](CO)[C@@H](O)[C@H]2O)c(=O)n1 [Azacitidine] (max concentration tested 10000 nM)	12.4	29.9	22.1	15.6	3.07 ± 2.9	75.2	10.9	68.2	34.5 ± 9.2	0.0452	1.02	0.39	0.1	0	5.39	0	3.59	2.02 ± 0.98	0	0	0	2.61 ± 3.7	0	0
Cc1cnc(NC(=O)Nc2cc(Br)c(C)cc2OC[C@@H]2CNCCO2)cn1 [Rabusertib] (max concentration tested 1000 nM)	2.25	36.4	32.8	17.4	51.1 ± 10	11.3	84.7	22.3	91.37 ± 0.63	0	2.75	1.96	0.93	3.39 ± 0.54	0.0015	4.93	1.36	5.07 ± 0.2	0	1.88	0	1.21 ± 1.4	0.0001	0
Cc1cc(Nc2cc(CN3CCOCC3)c3nc(C)c(Cc4ccc(Cl)cc4F)n3n2)n[nH]1 [Gandotinib] (max concentration tested 10000 nM)	97.2	68.9	70.5	68	101.6 ± 0.37	103	96.6	103	96.5 ± 2.7	8.52	8.72	7.71	7.29	10.4 ± 1.9	10.2	9.06	10.9	11.7 ± 2.7	5.3	3.96	0.55	7.03 ± 1.3	8.02	7.38
